Values of other authors, collected in US20100003322A1, “ENTERIC COATED HYDROPHOBIC MATRIX FORMULATION” (priority 2008, published 2010).
Counter-ions that a name gives are not always drawn.

Details: for water solubility: volume of water that dissolves 1 g: 1 g of drug in the stated ml of water; for solubility as described in the package insert: water, for gabapentin also basic and acidic aqueous solutions

SMILES	water solubility: volume of water that dissolves 1 g	water solubility: amount dissolved in 100 ml of water (in 100 ml of water)	solubility as described in the package insert
COc1cccc(C2(O)CCCCC2CN(C)C)c1 (centres unmarked) [tramadol hydrochloride]	~33 mL		
CCCC(CCC)C(=O)[O-].[Na+] [sodium valproate, sodium 2-propylpentanoate]	0.4 mL		
CC[C@@H](C(N)=O)N1CCCC1=O [levetiracetam, (−)-(S)-α-ethyl-2-oxo-1-pyrrolidine acetamide]		approximately 104 grams	very soluble
NCC1(CC(=O)O)CCCCC1 [gabapentin, 1-(aminomethyl)cyclohexaneacetic acid]			freely soluble
